Assay results taken from PubChem BioAssay AID463204 (Broad Institute, 2010).
Calls of active or inactive are those of the source.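 How the source made its calls: active means AC50 no more than ten times the top concentration tested, that is within one log above it; inconclusive means flat curve fit with activity between 30% and 70%, or invalid poor fit; inactive means AC50 beyond ten times the top tested dose.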

Tested on: S. cerevisiae Mot1-301 ts growth rescue, BacTiter-Glo ATP luminescence
Assay: growth rescue of Mot1-301 ts yeast, confirmation, SUMOylation pathway inhibitor project, whole organism, S. cerevisiae, Mot1-301 ts mutant, luminescence, dose retest (AID 463204);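 further: growth at restrictive 38.5 degrees C of Mot1-301 OY566 strain; actives raise luminescence by restoring growth of the ts mutant at high temperature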

Row | SMILES | AC50
1 | O=C(COC(=O)c1ccccc1SCC(=O)N1CCCC1)NC1CCCCC1 | > 42 µM (inactive)
2 | O=C(COc1ccccc1)Nc1ccc(OC(F)(F)C(F)F)c(NC(=O)COc2ccccc2)c1 | > 42 µM (inactive)
3 | O=C(N/C(=C/c1ccc2c(c1)OCO2)C(=O)N1CCOCC1)c1cccs1 | > 42 µM (inactive)
4 | CCCCC1=CC2=CC(=O)C(C)(OC(=O)CC)C(=O)C2=CN1CCc1ccc(Br)cc1 (configuration not stated) | > 42 µM (inactive)
5 | C[C@]12CC[C@H]3C(=CCc4cc(O)ccc43)[C@@H]1CCC2=O | > 42 µM (inactive)
6 | CC(C)CC(c1nnnn1C1CCCCC1)N1CCN(C(=O)c2ccco2)CC1 (configuration not stated) | > 42 µM (inactive)
7 | CCCOc1ccc([N+](=O)[O-])c(N)c1 | > 42 µM (inactive)
8 | CC(SC#N)C(=O)C12CC3CC(CC(C3)C1)C2 (configuration not stated) | 6.33 µM
9 | O=C(CCCn1cnc([N+](=O)[O-])n1)Nc1cccc2ccccc12 | > 42 µM (inactive)
10 | CCNC(=O)NC(C(=O)OC)C12CC3CC(CC(C3)C1)C2 (configuration not stated) | > 42 µM (inactive)
11 | COc1ccc(NC(=O)c2cc(C)no2)cc1Cl | > 42 µM (inactive)
12 | Cc1cc(C#Cc2c(-c3ccccc3)n(C)c3ccccc23)ccc1F | > 42 µM (inactive)
13 | COc1cc(NC(=S)N2CCN(C(=O)C3CCCO3)CC2)c(OC)cc1Cl (configuration not stated) | > 42 µM (inactive)
14 | CC1(C)C=C(c2ccc(O)cc2)CC(C)(C)N1 | > 42 µM (inactive)
15 | CCN1CCCC1CN(Cc1cc2ccc(C)cc2[nH]c1=O)C(=S)Nc1ccccc1C(=O)OC (configuration not stated) | > 42 µM (inactive)
16 | CN(C)C(=O)c1c2c(nc3ccccc13)CCCC2 | > 42 µM (inactive)
17 | CC(=O)Nc1ccc(C(=O)NCCCOC(C)C)cc1 | > 42 µM (inactive)
18 | CCn1nccc1C(=O)Nc1nccs1 | > 42 µM (inactive)
19 | Cc1cccc(N/N=C/c2c(O)[nH]c(=S)[nH]c2=O)c1 | > 42 µM (inactive)
20 | Oc1c(Br)cc(Br)cc1C=Nc1cccnc1 | 4.88 µM
21 | COc1ccc(NC(=S)NC(=O)C2CCC2)cc1 | > 42 µM (inactive)
22 | CCOC(=O)c1[nH]c2ccc(F)cc2c1NC(=O)CCN1CCOCC1 | > 42 µM (inactive)
23 | CCOC(=O)CNC(=O)c1cccnc1 | > 42 µM (inactive)
24 | CN1/C(=C\C(=O)COC(=O)c2ccc([N+](=O)[O-])o2)C(C)(C)c2ccccc21 | 13.6 µM
25 | CC1(C)NC(=O)N(CCCOc2ccccc2Br)C1=O | > 42 µM (inactive)
26 | CCOc1ccccc1NC(=O)c1ccc2c(c1)C(=O)N(CC(C)C)C2=O | > 42 µM (inactive)

Row | SMILES | AC50
27 | CCOC(=O)c1ccc(NC(=O)CC2Sc3ncnn3C2=O)cc1 (configuration not stated) | 6.96 µM
28 | Cc1ccc(NC(=S)N2CCN(Cc3ccc4c(c3)OCO4)CC2)c(C)c1 | > 42 µM (inactive)
29 | Cc1cc(C)n(CCOC(=O)C2C(C=C(Cl)Cl)C2(C)C)n1 (configuration not stated) | > 42 µM (inactive)
30 | O=C(Nc1nccs1)c1ccc(S(=O)(=O)c2ccccc2)cc1 | > 42 µM (inactive)
31 | O=C(CCNC(=O)c1ccc(Br)cc1)NCc1ccccc1F | > 42 µM (inactive)
32 | CC(C)N=C(NS(=O)(=O)NC(=O)c1ccccc1)c1ccccc1 | > 42 µM (inactive)
33 | CCCc1nc(NCc2ccccc2)c(C#N)c2c1CCCC2 | > 42 µM (inactive)
34 | COc1ccc(N(C(=O)c2ccncc2)S(=O)(=O)c2ccc(F)cc2)cc1 | > 42 µM (inactive)
35 | Cc1ccc(C(C(=O)NC2CCCCC2)N(CCC(C)C)C(=O)CNC(=O)c2ccco2)o1 (configuration not stated) | > 42 µM (inactive)
36 | CSc1ncc2ncn(C3OC(CO)C(O)C3O)c2n1 (configuration not stated) | > 42 µM (inactive)
37 | CSc1cccc(NC(=S)N2CCCN(Cc3ccccc3F)C2)c1 | > 42 µM (inactive)
38 | COCCn1c(-c2ccc(Cl)cc2)cnc1SCC(=O)NCCc1ccc(OC)c(OC)c1 | > 42 µM (inactive)
39 | O=C(CCc1nc2sc3c(c2c(=O)[nH]1)CCCC3)N1CCN(c2ccccc2)CC1 | > 42 µM (inactive)
40 | CCOC(=O)Cc1csc(NC(=O)NC2(C(F)(F)F)Oc3ccccc3O2)n1 | > 42 µM (inactive)
41 | Cc1nc(N2CCN(c3ccccn3)CC2)c2c(C)c(C(=O)N3CCN(c4ccccc4F)CC3)sc2n1 | > 42 µM (inactive)
42 | Cc1cc(/C=N/NC(=O)c2ccsc2)c(C)n1-c1cnccn1 | > 42 µM (inactive)
43 | CCOc1cc(/C=C2\NC(=O)NC2=O)ccc1OC(C)C(=O)O (configuration not stated) | > 42 µM (inactive)
44 | CCOCCCNC(=O)C(c1ccc(OC)cc1)N(Cc1cccs1)C(=O)c1ccccn1 (configuration not stated) | > 42 µM (inactive)
45 | CC1(C)Cc2c(cnn2-c2ccc(F)cc2)C(NC(=O)CCCN2CCCCC2=O)C1 (configuration not stated) | > 42 µM (inactive)
46 | Cc1ccc(/C=C/C(=O)c2ccc([N+](=O)[O-])o2)cc1 | 3.5 µM
47 | COc1ccc(NC(=O)c2ccc(-n3cncn3)c([N+](=O)[O-])c2)cc1 | > 21 µM (inactive)
48 | O=C(CSc1cccc2cccnc12)Nc1cc(C(=O)O)cc(C(=O)O)c1 | > 42 µM (inactive)
49 | Cc1ccc(S(=O)(=O)NNC(=O)c2cc3cc4ccccc4nc3s2)cc1 | > 42 µM (inactive)
50 | COC(=O)CCC(=O)OC1(C)C(=O)C2=CN(CCc3c[nH]c4ccccc34)C(c3ccc(OC)cc3)=CC2=C(Br)C1=O (configuration not stated) | > 42 µM (inactive)
51 | Cc1c(C(=O)NC(C)c2ccc(-n3ccnc3)cc2)cccc1[N+](=O)[O-] (configuration not stated) | > 42 µM (inactive)
52 | CCCCn1c(N)c(N(CC(C)C)C(=O)CSCC(=O)Nc2cccc(C)c2)c(=O)[nH]c1=O | > 42 µM (inactive)

Row | SMILES | AC50
53 | C/C(=N\N1CCN(Cc2ccccc2Cl)CC1)c1ccc([N+](=O)[O-])cc1 | > 42 µM (inactive)
54 | O=C(NCC(=O)N(c1ccccc1)C(C(=O)NCC1CCCO1)c1ccccc1)c1cccs1 (configuration not stated) | > 42 µM (inactive)
55 | Cc1ccsc1C(=O)NCCc1ccc(S(N)(=O)=O)cc1 | > 42 µM (inactive)
56 | CCOC(=O)CNC(=O)c1c(C)nn(C)c1Cl | > 42 µM (inactive)
57 | CCCNc1nc2ccccc2c(=O)[nH]1 | > 42 µM (inactive)
58 | CN(C)C(=O)CCN1CCOCC1 | > 42 µM (inactive)
59 | CCCCSCCCNC(=O)Nc1cccc(OC)c1 | > 42 µM (inactive)
60 | CCc1cc2c(=O)c(-c3nc4ccccc4[nH]3)coc2c(CN2CCCCC2)c1O | > 42 µM (inactive)
61 | O=c1cc(C(F)(F)F)c2sc(N3CCCCC3)nc2[nH]1 | > 42 µM (inactive)
62 | O=C(Cc1ccc(Cl)cc1Cl)OCC(=O)c1ccc[nH]1 | > 42 µM (inactive)
63 | O=C(O)CCC(NC(=O)c1ccc(Cl)cc1)C(=O)O (configuration not stated) | > 42 µM (inactive)
64 | CCN(CC)CCCNC(=O)C1c2ccccc2C(=O)N(CCOC)C1c1ccc(F)cc1 (configuration not stated) | > 21 µM (inactive)
65 | COc1ccc(-c2cc(=O)c3cc(O)ccc3o2)cc1 | > 42 µM (inactive)
66 | CCOC(=O)c1sc(NC(=O)C(CC)OC(=O)c2ccco2)nc1C (configuration not stated) | > 42 µM (inactive)
67 | Cc1cccc(N=Nc2ccc(N(C)C)cc2)c1 | > 42 µM (inactive)
68 | CC(=O)Nc1cccc(NC(=S)Nc2ccc(F)cc2F)c1 | > 42 µM (inactive)
69 | O=C(c1ccc(Br)cc1)C(CN1CCOCC1)c1ccccc1 (configuration not stated) | 0.65 µM
70 | COCC(=O)Nc1c(C(=O)Nc2ccc3c(c2)OCO3)oc2ccccc12 | > 42 µM (inactive)
71 | CCc1nc2ccc(C(=O)N3CCN(CC)CC3)cc2nc1CC | > 42 µM (inactive)
72 | CCCCn1c(SCC(=O)Nc2cc(C)on2)nnc1-c1ccco1 | > 42 µM (inactive)
73 | Nc1ncnc2nc(SCC(=O)N3CCN(c4ccccc4)CC3)[nH]c12 | > 42 µM (inactive)
74 | COc1cccc(/C=N/n2cnc3ccccc32)c1OC | > 42 µM (inactive)
75 | Cc1sc2ncnc(N3CCC(C(=O)NNC(=O)COc4ccccc4F)CC3)c2c1C | > 42 µM (inactive)
76 | O=C(CS(=O)c1ccc(C(F)(F)F)cc1[N+](=O)[O-])Oc1ccc(Cl)cc1 (configuration not stated) | 1.47 µM
77 | COc1ccccc1N(CC(=O)NCC1CCCO1)C(=O)CCC(=O)Nc1cc(C)on1 (configuration not stated) | > 42 µM (inactive)
78 | Cc1c(C2(O)CCCCC2)[nH]c2ccc(C#N)cc12 | 41.9 µM

Row | SMILES | AC50
79 | CCOc1cc(-c2ccccc2)nc(N)n1 | > 42 µM (inactive)
80 | CCOC(=O)N1CCN(S(=O)(=O)c2ccc(C)c(C)c2)CC1 | > 42 µM (inactive)
81 | COC(C(=O)Nc1ccnn1C1CCN(Cc2cnn(C)c2)CC1)c1ccccc1 (configuration not stated) | > 42 µM (inactive)
82 | COc1cccc(Cn2cnc3c(NS(=O)(=O)c4cccc(Cl)c4Cl)c(C)c(C)cc32)c1 | > 110 µM (inactive)
83 | CN(C)C(=O)CSc1nc2ccc(N3C(=O)c4ccccc4C3=O)cc2s1 | > 42 µM (inactive)
84 | CCCN(CC1CC1)C(=O)COc1ccccc1C(=O)NCc1ccccc1 | > 42 µM (inactive)
85 | CC1(C(=O)Nc2cccc(-n3cnnn3)c2)Cc2ccccc2C(=O)O1 (configuration not stated) | > 42 µM (inactive)
86 | Cc1ccc(N2CN(CCc3ccccc3)CNC2=S)cc1 | > 42 µM (inactive)
87 | COC(=O)c1cccc(NC(=O)c2cccnc2)c1 | > 42 µM (inactive)
88 | O=C(Nc1ccc(F)cc1F)N1CCCN(c2ccc(C(F)(F)F)cn2)CC1 | > 42 µM (inactive)
89 | O=C(/C=C/N1CCOCC1)c1coc2ccccc12 | > 42 µM (inactive)
90 | Cc1ccc(S(=O)(=O)NC2CCCCCCC2)cc1 | 18.1 µM
91 | O=C(OCC(=O)N1CCN(c2ccccc2)CC1)c1nc(Cl)ccc1Cl | > 42 µM (inactive)
92 | O=C(CSc1nnc(-c2ccccc2Cl)o1)Oc1ccc(Br)cc1 | > 42 µM (inactive)
93 | COc1ccccc1NC(NC(=O)c1ccco1)C(=O)c1ccccc1 (configuration not stated) | > 42 µM (inactive)
94 | COc1ccccc1C(=O)N(NC(=O)Oc1ccccc1)C(C)(C)C | > 42 µM (inactive)
95 | NC(=O)c1cc(S(=O)(=O)N2CCCC2)ccc1OCc1ccc(F)cc1 | > 42 µM (inactive)
96 | COc1ccc(NC(=O)c2ccc(S(=O)(=O)N(C)c3ccccc3)cc2)cn1 | > 42 µM (inactive)
97 | Cn1c(Cn2nnc3ccccc32)nnc1SCC(=O)c1ccc(F)cc1 | > 42 µM (inactive)
98 | CCN(C(=O)Cn1c(=O)oc2ccccc21)c1cccc(C)c1 | > 42 µM (inactive)
99 | CC(=O)N(C)c1ccc(N2CCOCC2)c2c1C(=O)c1ccccc1C2=O | > 42 µM (inactive)
100 | Cc1cc(S(=O)(=O)NCC(C)C)ccc1OCC(=O)N1CCOCC1 | > 42 µM (inactive)
101 | CCCCCC(=O)NNC1=NCC(Cc2cccc(Cl)c2)S1 (configuration not stated) | > 42 µM (inactive)
102 | CS(=O)(=O)c1ccc(Cl)c(C(=O)O)c1 | > 42 µM (inactive)
